Data taken from ChEMBL document CHEMBL3085661, “Fragment-based approach to the design of 5-chlorouracil-linked-pyrazolo[1,5-a][1,3,5]triazines as thymidine phosphorylase inhibitors” (Eur J Med Chem, 2013).
Counter-ions that a name gives are not always drawn.

Columns and labels:
Thymidine phosphorylase [1] = biological target: T1, Thymidine phosphorylase (Escherichia coli K-12, UniProt P07650); assay: Inhibition of Escherichia coli recombinant thymidine phosphorylase using thymidine as substrate after 4 to 20 mins by UV spectrophotometry
[2] = Cytotoxicity against human MDA-MB-231 cells assessed as cell viability at 100 uM by MTT assay relative to control; format: cell-based; conditions: read-out: Activity
Thymidine phosphorylase [3] = biological target: T1, Thymidine phosphorylase; assay: Mixed-type inhibition of Escherichia coli recombinant thymidine phosphorylase using thymidine as substrate by Lineweaver-Burk plot analysis
Thymidine phosphorylase [4] = biological target: T1, Thymidine phosphorylase; assay: Noncompetitive inhibition of GST-tagged Escherichia coli recombinant thymidine phosphorylase expressed in Escherichia coli using thymidine as substrate after 20 to 60 mins by HPLC analysis

T1 sequence (P07650 whole entry): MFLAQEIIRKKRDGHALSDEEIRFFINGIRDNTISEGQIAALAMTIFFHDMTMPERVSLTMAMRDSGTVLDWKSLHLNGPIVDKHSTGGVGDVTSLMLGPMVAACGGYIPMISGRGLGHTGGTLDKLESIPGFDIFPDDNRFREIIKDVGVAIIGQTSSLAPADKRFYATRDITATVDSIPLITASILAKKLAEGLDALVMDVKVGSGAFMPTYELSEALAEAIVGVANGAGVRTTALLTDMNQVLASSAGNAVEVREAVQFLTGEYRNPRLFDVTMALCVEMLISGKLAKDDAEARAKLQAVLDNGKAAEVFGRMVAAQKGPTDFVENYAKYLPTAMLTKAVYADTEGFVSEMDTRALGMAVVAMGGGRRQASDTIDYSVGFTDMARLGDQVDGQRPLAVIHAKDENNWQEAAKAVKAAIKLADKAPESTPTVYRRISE

Compound	IC50 (Thymidine phosphorylase [1]) [µM]	also measured
N#Cc1cnn2c(=O)[nH]c(SCc3[nH]c(=O)[nH]c(=O)c3Cl)nc12	38.8	–
Cc1cc2nc(SCc3[nH]c(=O)[nH]c(=O)c3Cl)[nH]c(=O)n2n1	55.5	–
CC(C)(C)c1cc2nc(SCc3[nH]c(=O)[nH]c(=O)c3Cl)[nH]c(=O)n2n1	51.2	–
O=c1[nH]c(CSc2nc3cc(-c4ccc(Cl)cc4)nn3c(=O)[nH]2)c(Cl)c(=O)[nH]1	10.3	–
O=c1[nH]c(CSc2nc3cc(-c4ccccc4)nn3c(=O)[nH]2)c(Cl)c(=O)[nH]1	13	–
O=c1[nH]c(CSc2nc3c(Cl)cnn3c(=O)[nH]2)c(Cl)c(=O)[nH]1	49.8	–
COc1ccc(-c2cnn3c(=O)[nH]c(SCc4[nH]c(=O)[nH]c(=O)c4Cl)nc23)cc1	21.3	–
O=c1[nH]c(CSc2nc3cc(-c4ccc(F)cc4)nn3c(=O)[nH]2)c(Cl)c(=O)[nH]1	22.6	–
O=c1[nH]c(CSc2nc3c(Br)cnn3c(=O)[nH]2)c(Cl)c(=O)[nH]1	40	–
CCOc1ccc(-c2cnn3c(=O)[nH]c(SCc4[nH]c(=O)[nH]c(=O)c4Cl)nc23)cc1	12	–
CCOC(=O)c1cnn2c(=O)[nH]c(=S)[nH]c12	> 100	–
N#Cc1cnn2c(=O)[nH]c(=S)[nH]c12	> 100	–
Oc1ncnc2c1ncn2[C@@H]1O[C@H](COC(c2ccccc2)(c2ccccc2)c2ccccc2)[C@@H](O)[C@H]1O	–	IC50 (Thymidine phosphorylase [4]): 44 µM
O=c1[nH]c(CSc2nc3c(I)cnn3c(=O)[nH]2)c(Cl)c(=O)[nH]1	30.8	–
Cc1cnn2c(=O)[nH]c(SCc3[nH]c(=O)[nH]c(=O)c3Cl)nc12	35.3	–
O=c1[nH]c(CSc2nc3cc(C(F)(F)F)nn3c(=O)[nH]2)c(Cl)c(=O)[nH]1	31	–
O=c1[nH]c(CSc2nc3ccnn3c(=O)[nH]2)c(Cl)c(=O)[nH]1	67.8	–
COc1ccc(-c2cc3nc(SCc4[nH]c(=O)[nH]c(=O)c4Cl)[nH]c(=O)n3n2)cc1	11.8	–
CCOC(=O)c1cnn2c(=O)[nH]c(SCc3[nH]c(=O)[nH]c(=O)c3Cl)nc12	47.2	–

Continued, in another order:

IC50 (Thymidine phosphorylase [1]) [µM]	Compound	also measured
1.3	O=c1[nH]c(CSc2nc3c(-c4ccc(C(F)(F)F)cc4)cnn3c(=O)[nH]2)c(Cl)c(=O)[nH]1	–
1.8	CC(C)(C)c1ccc(-c2cnn3c(=O)[nH]c(SCc4[nH]c(=O)[nH]c(=O)c4Cl)nc23)cc1	–
1.5	CC(C)(C)c1ccc(-c2cc3nc(SCc4[nH]c(=O)[nH]c(=O)c4Cl)[nH]c(=O)n3n2)cc1	–
1.2	O=c1[nH]c(CSc2nc3c(-c4ccc(Br)cc4)cnn3c(=O)[nH]2)c(Cl)c(=O)[nH]1	–
6.2	O=c1[nH]c(CSc2nc3cc(-c4ccc(Br)cc4)nn3c(=O)[nH]2)c(Cl)c(=O)[nH]1	–
6.1	CCOc1ccc(-c2cc3[nH]c(=S)[nH]c(=O)n3n2)cc1	–
9.7	O=c1[nH]c(CSc2nc3c(-c4ccccc4)cnn3c(=O)[nH]2)c(Cl)c(=O)[nH]1	–
7.3	Cc1ccc(-c2cnn3c(=O)[nH]c(SCc4[nH]c(=O)[nH]c(=O)c4Cl)nc23)cc1	–
2.8	O=c1[nH]c(CSc2nc3c(-c4ccc(Cl)cc4)cnn3c(=O)[nH]2)c(Cl)c(=O)[nH]1	–
8	O=c1[nH]c(CSc2nc3c(-c4ccc(F)cc4)cnn3c(=O)[nH]2)c(Cl)c(=O)[nH]1	–
2.1	O=c1[nH]c(CSc2nc3cc(-c4ccc(C(F)(F)F)cc4)nn3c(=O)[nH]2)c(Cl)c(=O)[nH]1	–
0.36	O=c1[nH]c(CSc2nc3c(-c4ccc(S(F)(F)(F)(F)F)cc4)cnn3c(=O)[nH]2)c(Cl)c(=O)[nH]1	viability at 100 µM [2]: 67%; Ki (Thymidine phosphorylase [3]): 440 nM
0.0027	N=C1CCCN1Cc1[nH]c(=O)[nH]c(=O)c1Cl [TIPIRACIL HYDROCHLORIDE]	–
9.8	Cc1ccc(-c2cc3nc(SCc4[nH]c(=O)[nH]c(=O)c4Cl)[nH]c(=O)n3n2)cc1	–
10	CCOc1ccc(-c2cc3nc(SCc4[nH]c(=O)[nH]c(=O)c4Cl)[nH]c(=O)n3n2)cc1	–
0.61	O=c1[nH]c(CSc2nc3c(-c4ccc(I)cc4)cnn3c(=O)[nH]2)c(Cl)c(=O)[nH]1	–
